Results on 15 molecules are retold here after US10676442B2, “Salt derivative of tetrahydroisoquinoline and crystalline thereof and preparation method therefore and application thereof” (CHINA STATE INSTITUTE OF PHARMACEUTICAL INDUSTRY, priority 2016, dated 2020).

The structures appear in SMILES notation. In brackets after ≈: the same amount, converted by molar mass. Entries after “also recorded” stand apart in the source; their conditions may differ. Counter-ions that a name gives are not always drawn. Like-named read-outs stand apart in the source and are kept apart here.

The nature of series [1]: Measurement of solubility in water by liquid chromatography. It is filed as physicochemical. Conditions: for Solubility in water / solubility at 12 h: saturated solution shaken 12 hrs at 30° C., HPLC, in water; for Solubility in water compared to SIPI-409 and SIPI-409 hydrochloride: in words; for solubility at 12 h: thermodynamic from solid. The procedure:
Solubility of SIPI-409 and of the salt derivatives thereof in water was measured by liquid chromatography.
Main steps: preparing SIPI-409 standards at the concentrations of 5 ? g/mL, 10 ? g/mL, 50 ? g/mL, 100 ? g/mL, 200 ? g/mL and establishing the standard curve of these preparations.
Chromatography Conditions:
Chromatography column: Phenomenex Luna 5u C18(2) 100 A 4.6×200 mm
Detection wave-length: 210 nm
Mobile phase: acetonitrile/phosphate buffer (0.68 g/L monopotassium phosphate, pH was adjusted to 3.0 using triethylamine)=68/32
Column temperature: 30° C.
Load volume: 10 ? L
Residence time: around 6.3 min
Sample treatment: the test samples were prepared into saturated solutions in water (suspensions) and shaken for 12 hrs at 30° C., which were further ultrasonicated for 30 s, followed by filtration and preparation of serial dilutions as appropriate, which were then analyzed by HPLC.

A short description of series [2]: Hygroscopicity investigation (dynamic vapor sorption). It is filed as physicochemical. As to conditions: dynamic vapor sorption analyzer. The source says:
Hygroscopicity was further investigated by placing the phosphate, nicotinate, glycolate, oxalate, orotate, benzenesulfonate and sulfate of SIPI-409 in a dynamic vapor sorption (DVS) analyzer.

Series [3] in a line: Temperature stability investigation (60° C. oven, XRPD). It is filed as physicochemical. Conditions: oven at 60° C., XRPD on day 0, 5, 10, 20 and 30. As to the method: Phosphate, nicotinate, glycolate, oxalate, orotate, benzenesulfonate and sulfate of SIPI-409 were placed in an oven at 60° C. XRPD measurements were carried out on samples taken out on day 0, 5, 10, 20 and 30.

A short description of series [4]: Light stability investigation (light incubator, XRPD). Conditions: XRPD on day 0, 5, 10, 20 and 30. It is filed as physicochemical. The procedure:
The phosphate, nicotinate, glycolate, oxalate, orotate, benzenesulfonate and sulfate of SIPI-409 were placed in a light incubator. XRPD measurements were carried out on samples taken out on day 0, 5, 10, 20 and 30.

Series [5] is described as follows: Humidity stability investigation (92.5% RH, XRPD). The series is classed as physicochemical. As to conditions: 92.5% RH (saturated KNO3), XRPD on day 0, 5, 10, 20 and 30. As to the method: The phosphate, nicotinate, glycolate, oxalate, orotate, benzenesulfonate and sulfate of SIPI-409 were kept in a 92.5% RH (saturated KNO3) atomosphere. XRPD measurements were carried out on samples taken out on day 0, 5, 10, 20 and 30.

Series [6] can be described thus: Preliminary pharmacokinetic studies (background). It is filed as in vivo, SD rats. As to conditions: for bioavailability: rat, plasma, oral administration, SD rats. From the text:
This can be explained by the excessively low solubility of the salt.

A short description of series [7]: Pharmacokinetic study, single oral dose in SD rats (LC-MS/MS of plasma). The series is classed as in vivo. Conditions: PO 10 mg/kg (based on SIPI-409), single dose. The procedure:
SIPI-409 hydrochloride and SIPI-409 phosphate were administrated peros (PO), and were studied on in vivo pharmacokinetic parameters and bioavailability in SD rats. Concentrations of SIPI-409 hydrochloride and SIPI-409 phosphate in plasma were measured at intervals using Liquid Chromatography-Mass Spectrometry-Mass Spectrometry assay.
The obtained plasma concentration data were processed using the pharmacokinetic processing software WinNonlin 5.2 to calculate the relevant pharmacokinetic parameters according to non-compartmental model.

For the molecule `COc1cc2c(cc1OCc1ccccc1)C(Cc1cccc(NS(C)(=O)=O)c1)NCC2` (stereo not drawn) [SIPI-409 Tartarate, 1-(3-methanesulfonamidobenzyl)-6-methoxy,7-benzyloxy-1,2,3,4-tetrahydroisoquinoline], the Solubility in water in series [1] is recorded as 0.22 mg/mL (≈ 486 µM).

In the case of `COc1cc2c(cc1OCc1ccccc1)C(Cc1cccc(NS(C)(=O)=O)c1)NCC2` (stereo not drawn) [SIPI-409 Oxalate, 1-(3-methanesulfonamidobenzyl)-6-methoxy,7-benzyloxy-1,2,3,4-tetrahydroisoquinoline], the “DVS Max Hygroscopicity” value in series [2] came to 9.5%. In series [3], the “Stability 60° C.” value was “Stable”. Further, in series [1], the Solubility in water is recorded as 3.52 mg/mL; the “Solubility in water compared to SIPI-409 and SIPI-409 hydrochloride” value is “significantly increased solubility in water”. The “Stability Light” value in series [4] was “Stable”. For the same molecule, the “Stability 92.5% RH” value in series [5] is recorded as “Hygroscopic”.

Turning to `COc1cc2c(cc1OCc1ccccc1)C(Cc1cccc(NS(C)(=O)=O)c1)NCC2` (stereo not drawn) [SIPI-409 Ethionate, 1-(3-methanesulfonamidobenzyl)-6-methoxy,7-benzyloxy-1,2,3,4-tetrahydroisoquinoline], in series [1], the Solubility in water was 0.44 mg/mL (≈ 972 µM).

Turning to `COc1cc2c(cc1OCc1ccccc1)C(Cc1cccc(NS(C)(=O)=O)c1)NCC2` (stereo not drawn) [SIPI-409, 1-(3-methanesulfonamidobenzyl)-6-methoxy,7-benzyloxy-1,2,3,4-tetrahydroisoquinoline, reference compound], the Solubility in water in series [1] is recorded as 0.07 mg/mL (≈ 155 µM).

Turning to `COc1cc2c(cc1OCc1ccccc1)C(Cc1cccc(NS(C)(=O)=O)c1)NCC2` (stereo not drawn) [SIPI-409 Succinate, 1-(3-methanesulfonamidobenzyl)-6-methoxy,7-benzyloxy-1,2,3,4-tetrahydroisoquinoline], the Solubility in water in series [1] amounted to 0.16 mg/mL.

`COc1cc2c(cc1OCc1ccccc1)C(Cc1cccc(NS(C)(=O)=O)c1)NCC2` (stereo not drawn) [SIPI-409 Sulfate, 1-(3-methanesulfonamidobenzyl)-6-methoxy,7-benzyloxy-1,2,3,4-tetrahydroisoquinoline]: in series [2], the “DVS Max Hygroscopicity” value stood at 5.2%. Further, the “Stability 60° C.” value in series [3] was “Stable”. In series [1], the Solubility in water came out at 5.76 mg/mL; the “Solubility in water compared to SIPI-409 and SIPI-409 hydrochloride” value is reported as “significantly increased solubility in water”. For the same molecule, the “Stability Light” value in series [4] is listed as “Stable”. The “Stability 92.5% RH” value in series [5] is listed as “Hygroscopic”.

Take `COc1cc2c(cc1OCc1ccccc1)C(Cc1cccc(NS(C)(=O)=O)c1)NCC2` (stereo not drawn) [SIPI-409 Glycolate, 1-(3-methanesulfonamidobenzyl)-6-methoxy,7-benzyloxy-1,2,3,4-tetrahydroisoquinoline]: the “DVS Max Hygroscopicity” value in series [2] is on record as 0.8%. The “Stability 60° C.” value in series [3] is “Stable”. For the same molecule, in series [1], the Solubility in water is given as 3.21 mg/mL (≈ 7090 µM); the “Solubility in water compared to SIPI-409 and SIPI-409 hydrochloride” value was “significantly increased solubility in water”. Besides, the “Stability Light” value in series [4] is listed as “Stable”. For the same molecule, the “Stability 92.5% RH” value in series [5] is on record as “Stable”.

Regarding `COc1cc2c(cc1OCc1ccccc1)C(Cc1cccc(NS(C)(=O)=O)c1)NCC2` (stereo not drawn) [SIPI-409 Fumarate, 1-(3-methanesulfonamidobenzyl)-6-methoxy,7-benzyloxy-1,2,3,4-tetrahydroisoquinoline], the Solubility in water in series [1] is given as 0.12 mg/mL.

In the case of `COc1cc2c(cc1OCc1ccccc1)C(Cc1cccc(NS(C)(=O)=O)c1)NCC2` (stereo not drawn) [SIPI-409 Hydrobromate, 1-(3-methanesulfonamidobenzyl)-6-methoxy,7-benzyloxy-1,2,3,4-tetrahydroisoquinoline], the Solubility in water in series [1] is given as 0.44 mg/mL (≈ 972 µM).

Consider `COc1cc2c(cc1OCc1ccccc1)C(Cc1cccc(NS(C)(=O)=O)c1)NCC2` (stereo not drawn) [SIPI-409 Benzenesulfonate, 1-(3-methanesulfonamidobenzyl)-6-methoxy,7-benzyloxy-1,2,3,4-tetrahydroisoquinoline], for which the “DVS Max Hygroscopicity” value in series [2] is reported as 4.5%. In addition, the “Stability 60° C.” value in series [3] is “Stable”. Further, the solubility (in general, the concentration that dissolves in the medium under given conditions) at 12 h in series [1] (read-out: Solubility) turned out to be 3210 µM; in series [1] (read-out: Solubility in water) it was 1960 µg/mL. The “Stability Light” value in series [4] is reported as “Stable”. The “Stability 92.5% RH” value in series [5] was “Hygroscopic”.

`COc1cc2c(cc1OCc1ccccc1)C(Cc1cccc(NS(C)(=O)=O)c1)NCC2` (stereo not drawn) [SIPI-409 Nicotinate, 1-(3-methanesulfonamidobenzyl)-6-methoxy,7-benzyloxy-1,2,3,4-tetrahydroisoquinoline]: the “DVS Max Hygroscopicity” value in series [2] turned out to be 4.5%. For the same molecule, the “Stability 60° C.” value in series [3] was “less stable against heat and degraded since day 5; also recorded: Instable”. In series [1], the Solubility in water turned out to be 4.26 mg/mL (≈ 9410 µM); the “Solubility in water compared to SIPI-409 and SIPI-409 hydrochloride” value is reported as “significantly increased solubility in water”. Also, the “Stability Light” value in series [4] was “Stable”. Further, in series [5], the “Stability 92.5% RH” value is “Hygroscopic”.

On to `COc1cc2c(cc1OCc1ccccc1)C(Cc1cccc(NS(C)(=O)=O)c1)NCC2` (stereo not drawn) [SIPI-409 Orotate, 1-(3-methanesulfonamidobenzyl)-6-methoxy,7-benzyloxy-1,2,3,4-tetrahydroisoquinoline], for which the “DVS Max Hygroscopicity” value in series [2] was 1.1%. Besides, the “Stability 60° C.” value in series [3] is reported as “Stable”. Further, in series [1], the Solubility in water is 1.93 mg/mL (≈ 4260 µM); the “Solubility in water compared to SIPI-409 and SIPI-409 hydrochloride” value is recorded as “significantly increased solubility in water”. Besides, in series [4], the “Stability Light” value is on record as “Stable”. Further, the “Stability 92.5% RH” value in series [5] is reported as “Stable”.

For the molecule `CC(C)NCC(O)c1ccc(NS(C)(=O)=O)cc1` (stereo not drawn) [Sotalol], the bioavailability (commonly the share of a dose that reaches the circulation, judged against a reference dose that is usually intravenous) in series [6] is 70%.

Consider `COc1cc2c(cc1OCc1ccccc1)C(Cc1cccc(NS(C)(=O)=O)c1)NCC2` (racemic) [SIPI-409 Malate, 1-(3-methanesulfonamidobenzyl)-6-methoxy,7-benzyloxy-1,2,3,4-tetrahydroisoquinoline], for which the solubility at 12 h was determined as 650 µM in series [1] (water, 30 °C, water, read-out: Solubility) and 380 µg/mL in series [1] (water, 30 °C, water, read-out: Solubility in water).

With `COc1cc2c(cc1OCc1ccccc1)C(Cc1cccc(NS(C)(=O)=O)c1)NCC2` (stereo not drawn) [SIPI-409 Hydrochloride, 1-(3-methanesulfonamidobenzyl)-6-methoxy,7-benzyloxy-1,2,3,4-tetrahydroisoquinoline, reference compound], the Solubility in water in series [1] amounted to 0.51 mg/mL. In addition, the Tmax (as a rule, the time at which the peak concentration occurs) in series [7] amounted to 19.8 min. Further, in series [7] (10 mg/kg), the AUC(0-t) (commonly exposure summed from dosing to a finite time, without extrapolation to infinity) amounted to 482.88 µg·h/L; the “AUC(0-∞)” value was determined as 503.82 µg·h/L; the Cmax (in general, the highest concentration seen after dosing) is 191.96 µg/L; the “F (bioavailability)” value stood at 24.63%. Besides, the t1/2 in series [7] (10 mg/kg) came to 1.8 h. Further, the t1/2 of injection result in series [6] (injection, compared with Sotalol) is recorded as “close to that of Sotalol”. The bioavailability in series [6] was 24%.
